Results from patent publication US8420696B2, “Use of low-dose ladostigil for neuroprotection” (priority 2005, dated 2013).

Experiments:
[1] = system: rats injected icv with STZ (spatial memory); assay: Morris water maze spatial memory after icv STZ; format: in vivo, Sprague-Dawley rats; details: icv STZ + chronic ladostigil 1 mg/kg vs icv STZ only
Procedure: Male Sprague-Dawley rats (63) weighing 320-340 g, aged 4 months, were anesthetized by an intraperitoneal injection of Equithesin 0.3 ml/kg. STZ (0.5 mg) dissolved in 2 μl artificial cerebrospinal fluid (CSF) was injected into each lateral ventricle of 45 rats. The stereotaxic co-ordinates for icv injection were: 0.9 mm posterior, 1.8 mm lateral and 3.8 mm ventral from the bregma level. Control rats (18) received a bilateral injection of 2 μl artificial CSF. STZ-injected rats (25) were given ladostigil (1 mg/kg of the hemitartrate salt/day) orally in a volume of (1 ml/kg) from one week before, until 1 or 8 weeks after icv STZ. The remaining 20 rats received 1 ml/kg water. The rats were housed two per cage with free access to food and water until the behavioral, enzymatic and cytochemical measurements were completed. […]
Group means of 3 measures in the object and place recognition tests, duration of exploration in first and second phases and discrimination index were submitted to one way ANOVA. Mean daily escape latencies for trial 1 and trial 2 in the MWM in each group were analyzed by repeated measures ANOVA for DAY and GROUP followed by Duncan's post hoc test where appropriate. Histological data were analyzed by univariate ANOVA followed by Duncan's post hoc test. […]

MAO-B = target: T1, MAO-B (Rattus norvegicus, UniProt P19643); assay: Example 2: MAO-B activity in homogenates of striatum; format: in vivo, rats; details: chronic 1 mg/kg
T1 construct: from tissue; host or cells: striatum homogenate of dosed Sprague-Dawley rats
T1 sequence (P19643 1-520): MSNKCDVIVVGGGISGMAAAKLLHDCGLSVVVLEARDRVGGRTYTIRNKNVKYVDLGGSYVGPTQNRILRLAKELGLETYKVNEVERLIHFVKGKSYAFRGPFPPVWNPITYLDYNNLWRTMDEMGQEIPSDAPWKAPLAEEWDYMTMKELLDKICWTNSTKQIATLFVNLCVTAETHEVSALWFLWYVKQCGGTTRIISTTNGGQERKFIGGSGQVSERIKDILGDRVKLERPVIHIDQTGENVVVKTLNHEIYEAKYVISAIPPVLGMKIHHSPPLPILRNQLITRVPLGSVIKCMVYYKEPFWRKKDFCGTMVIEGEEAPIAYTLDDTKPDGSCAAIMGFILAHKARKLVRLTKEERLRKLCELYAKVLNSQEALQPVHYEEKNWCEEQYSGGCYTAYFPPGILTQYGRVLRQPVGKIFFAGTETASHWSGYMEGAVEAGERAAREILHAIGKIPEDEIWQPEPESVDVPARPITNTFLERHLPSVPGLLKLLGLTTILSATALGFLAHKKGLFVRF
Procedure: The effect of chronic ladostigil treatment on ChE activity in the cortex and hippocampus of rats was determined one week after icv STZ in 12 rats (3 treated with water and 9 with ladostigil). The effect of acute treatment with ladostigil 1 or 17 mg/kg was determined 2 hrs after drug administration. […] The brain was rapidly removed, washed with saline on ice and the cortex, hippocampus and striatum dissected out, quickly weighed and stored at −70° C. until assay. Total ChE activity in the cortex and hippocampus was measured as described in Wang et al., Gender differences in the effect of rivastigmine on brain cholinesterase activity and cognitive function in rats, Neuropharmacology (2000) 39:497-506, using the spectrophotometric method of Ellman et al., A new and rapid colorimetric determination of acetylcholinesterase activity, Biochem. Pharmacol. (1961) 7:88-95 with acetylthiocholine (Sigma Ltd) as a substrate using homogenate of 100 mg tissue in 1 ml phosphate buffer. […] MAO A and B activity was measured in homogenates of striatum as described in Weinstock et al., Limited potentiation of blood pressure response to oral tyramine by brain-selective monoamine oxidase A-B inhibitor, TV-3326 in conscious rabbits, Neuropharmacology (2002) 43:999-1005.

C#CCN[C@@H]1CCc2ccc(OC(=O)N(C)CC)cc21 [ladostigil, R(+)-6-(N-methyl,N-ethyl-carbamoyloxy)-N′-propargyl-1-aminoindan]
Escape latency in Morris water maze, trial 1, means over 5 days [1]: rats given icv STZ only had significantly higher latencies than those injected with CSF or STZ and treated with ladostigil
MAO-B (%) inhibition (MAO-B; 60 min): 11.3 ± 1.4 %
MAO-B (%) inhibition (MAO-B; 120 min (2 hrs)): 15%
